Experimental data reported in patent US10464896B2, “Efflux-pump inhibitors and therapeutic uses thereof” (Basilea Pharmaceutica International AG, priority 2015, dated 2019).

What follows are compounds tested on E. coli ATCC25922 (assay: Antibacterial activity in combination with minocycline (growth inhibition)). Settings: Escherichia coli, ATCC25922, compound at 25 μM; minocycline 0.25 μg/mL; OD625 23 h minus 1 h; read-out: residual growth of E. coli ATCC25922 (% of uninhibited control) with minocycline.
Format: cell-based
Method: Antibacterial activity in combination with minocycline or with linezolid
Inhibition of growth was measured with E. coli ATCC25922 and P. aeruginosa PAO1 in a 96-well plate format. Cation-adjusted Müller-Hinton broth (caMHB) was inoculated with an overnight culture and incubated at 37° C. on a shaker until OD625 reached 0.6 to 0.7. Density was adjusted to OD600=0.5 by addition of caMHB. 35 μL of the suspension were diluted to 35 mL with caMHB and supplemented with minocycline at the subinhibitory doses of 0.25 μg/mL for E. coli and 8 μg/mL for P. aeruginosa or with linezolid at the subinhibitory dose of 128 μg/mL for E. coli and P. aeruginosa. Each well contained 1 μL of test compound in 100 μL caMHB with minocycline or with linezolid.
Plates were incubated at 37° C. on a plate shaker. OD625 was measured at 1 h, 6 h, and at 23 h.
The difference between OD at 23 h and at 1 h was taken as measure for cell density and compared to controls without inhibitor (i.e. uninhibited control). Results were expressed as residual growth (% of uninhibited control). Enhancement of minocycline or linezolid activity caused reduced residual growth.

Row | SMILES | activity at 25 µM
1 | C=CCOc1cc(/C=C/c2ccc(C#N)c(C(F)(F)F)c2)cc(CNCC2CNC2)c1 [Example 299] | ≤ 10%
2 | C=CCOc1cc(/C=C/c2csc(C(C)C)n2)cc(CNCC2CCNC2)c1 (centres unmarked) [Example 330] | ≤ 10%
3 | Clc1ccc(CCc2cccc(CNCC3CNC3)c2)c(Br)c1 [Example 64, N-(azetidin-3-ylmethyl)-1-[3-[2-(2-bromo-4-chloro-phenyl)ethyl]phenyl]methanamine] | ≤ 10%
4 | C=CCOc1cc(/C=C/c2ccc(Cl)cc2Br)cc(CNCC(=O)NCC2CNC2)c1 [Example 443] | ≤ 10%
5 | COC(=O)c1ccc(COc2cc(CNCC3CCNC3)cc(OCc3ccc(Cl)cc3Br)c2)cc1 (centres unmarked) [Example 197] | ≤ 10%
6 | Clc1cc(/C=C/c2ccc(Cl)cc2Br)cc(CNCC2CCNC2)c1 (centres unmarked) [Example 157] | ≤ 10%
7 | Clc1ccc(/C=C/c2cc(CNCC3CNC3)cc(OCCc3c[nH]cn3)c2)c(Br)c1 [Example 261] | ≤ 10%
8 | C=CCOc1cc(CNCC2CNC2)cc(C(=O)Nc2ccc(Cl)cc2Br)c1 [Example 394, 3-allyloxy-5-[(azetidin-3-ylmethylamino)methyl]-N-(2-bromo-4-chloro-phenyl)benzamide] | ≤ 10%
9 | Clc1ccc(OCc2cccc(CCNCC3CNC3)c2)c(Br)c1 [Example 58] | ≤ 10%
10 | N#Cc1ccc(COc2ccc(CNCC3CNC3)cc2)c(Br)c1 [Example 85] | ≤ 10%
11 | C=CCOc1cc(/C=C/c2ccncc2)cc(CNCC2CNC2)c1 [Example 338] | ≤ 10%
12 | Clc1ccc(COc2cccc(CNCC3CNC3)c2)c(I)c1 [Example 229] | ≤ 10%
13 | CC(C)(C)c1ccc(COc2ccc(CNC3CCNCC3)cc2)cc1 [Example 59] | ≤ 10%
14 | Ic1ccc(COc2cccc(CNCC3CCNC3)c2)cc1 (centres unmarked) [Example 207] | ≤ 10%
15 | Clc1ccc(/C=C/c2cc(OCCCNCC3CNC3)cc(OCCc3ccncc3)c2)c(Br)c1 [Example 509] | ≤ 10%
16 | Clc1ccc(/C=C\c2cc(CNCC3CCNC3)cc(OCCc3ccncc3)c2)c(Br)c1 (centres unmarked) [Example 253] | ≤ 10%
17 | C=CCOc1ccc(OCc2ccc(Br)cc2Cl)cc1CNCC1CNC1 [Example 406] | ≤ 10%
18 | CC(C)COc1cc(C[N+](C)(C)CC2CNC2)cc(OCc2ccc(Cl)cc2Br)c1 [Example 382] | ≤ 10%
19 | Clc1ccc(-c2ccc(CNCC3CCNC3)cc2)c(Br)c1 (centres unmarked) [Example 62] | ≤ 10%
20 | C=CCOc1cc(CCc2ccc(OC)cc2OC)cc(CNCC2CNC2)c1 [Example 322] | ≤ 10%
21 | Clc1ccc(/C=C/c2cc(CNCC3CCNC3)cc(OCCc3c[nH]cn3)c2)c(Br)c1 (centres unmarked) [Example 262] | ≤ 10%
22 | Fc1cc(Br)ccc1COc1ccc(CNCC2CNC2)cc1 [Example 56] | ≤ 10%
23 | Cc1cc(COc2cc(/C=C/c3ccc(Cl)cc3Br)cc(CNCC3CCNC3)c2)no1 (centres unmarked) [Example 347] | ≤ 10%
24 | C=CCOc1cc(CNCC2CCNC2)cc(CSc2ccc(Cl)cc2C(F)(F)F)c1 (centres unmarked) [Example 184] | ≤ 10%
25 | Cn1cnc(COc2cc(/C=C/c3ccc(Cl)cc3Br)cc(CNCC3CCNC3)c2)c1 (centres unmarked) [Example 345] | ≤ 10%
26 | C=CCOc1cc(/C=C/c2ccc(Cl)cc2Br)cc(CNCC2CNC2)c1 [Example 180] | ≤ 10%
27 | C=CCOc1cc(CNCC2CCNC2)cc(CNC(=O)c2ccc(C(C)(C)C)cc2)c1 (centres unmarked) [Example 357] | ≤ 10%

Same assay, conditions: Escherichia coli, ATCC25922, compound at 50 μM; minocycline 0.25 μg/mL; OD625 23 h minus 1 h; read-out: residual growth of E. coli ATCC25922 (% of uninhibited control) with minocycline

Row | SMILES | activity at 50 µM
28 | O=C(NCc1cc(CNCC2CCNC2)cc(OCCc2c[nH]cn2)c1)c1nc(C2CC2)cs1 (centres unmarked) [Example 391] | ≤ 50%

Same assay, conditions: Escherichia coli, ATCC25922, read-out: residual growth of E. coli ATCC25922 (% of uninhibited control) with minocycline, compound at 25 μM; minocycline 0.25 μg/mL; OD625 23 h minus 1 h

Row | SMILES | activity at 25 µM
29 | Clc1ccc(C=CCc2cccc(CNCC3CNC3)c2)c(Br)c1 (mixture of isomers) [Example 168, N-(azetidin-3-ylmethyl)-1-[3-[(Z/E)-3-(2-bromo-4-chloro-phenyl)allyl]phenyl]methanamine] | ≤ 10%
